Experimental data as given in patent publication US20040014730A1, “Formulations and methods of reducing toxicity of anti-infective agents” (priority 2002, published 2004).

Tests used:
humans = settings: human, in vivo
[1] = Stability in acidic and basic aqueous media (proton NMR); assay type: physicochemical; settings: for stability in aqueous solution: pH 1.5 to 9.0
Protocol: The stability of 2,2′-dithio-bis-ethane sulfonate at room temperature was determined at pH ranges of 1.5 to 9.0.
The following experiment was performed to determine the stability of 2,2′-dithio-bis-ethane sulfonate in acidic and basic aqueous media. In a typical experiment, 50 mg of 2,2′-dithio-bis-ethane sulfonate (as produced by using the above described method) was dissolved in one ml of water and the pH was adjusted to 1.5, 2.0, 3.0, 4.0, 5.0 and 6.0 by adding 1 N hydrochloric acid in water or the pH was adjusted to 8.0 and 9.0 by adding 1 N sodium hydroxide in water. The reaction mixture was stirred for 24 hours at room temperature, the water was removed at reduced pressure, dissolved in spectral grade D2O, and the proton NMR spectrum was recorded.
The stability of 2,2′-dithio-bis-ethane sulfonate at pH 1.5 was further studied by heating the reaction mixture to 100 degrees Celsius for 10 minutes.

mice = settings: mouse, in vivo, iv
dogs = settings: dog, in vivo, iv
[2] = cited from earlier work

Row | SMILES | dose administered with no adverse effects (humans) | proton NMR spectrum after stirring in aqueous solution ([1]; 50 mg in one ml water, pH 1.5, 2.0, 3.0, 4.0, 5.0, 6.0, 8.0 and 9.0, 24 hours, room temperature) | proton NMR spectrum after heating ([1]; pH 1.5, 100 degrees Celsius for 10 minutes) | stability in aqueous solution ([1]; room temperature, listed as 2,2′-Dithio-bis-ethane sulfonate) | stability in aqueous solution ([1]; room temperature, listed as 2,2′-dithio-bis-ethane sulfonate) | dose administered intravenously with no adverse effects (mice) | dose administered intravenously with no adverse effects (dogs) | accepted oral LD50 [2]
1 | O=S(=O)([O-])CCSSCCS(=O)(=O)[O-].[Na+].[Na+] [Dimesna, disodium 2,2′-dithiobis ethane sulfonate] | exceeding 25 g/m^2 | no additional peaks were observed | No change in the proton spectrum | very stable | stable | > 3750 mg/kg | > 3750 mg/kg | –
2 | [Cl-].[Na+] [common table salt] | – | – | – | – | – | – | – | 3750 mg/kg
